Measured values reported in US20230302160A1, “TUMOR CONTRAST COMPOUND, PREPARATION METHOD THEREFOR AND APPLICATION THEREOF IN TUMOR DIAGNOSTIC IMAGING” (Ningbo Haibo Biotechnology Co., Ltd, priority 2020, published 2023).
Where two headings read alike, the source gives them in different places.

Legend:
[1] = Fluorescence quenching effect after mixing with surfactin in different ratios (fluorescence imager, ROI); type: physicochemical; conditions: compound 20 μM with surfactin
Experimental: The test solution was shaken for 5 min and added to a black 96-well plate with 50 ul of test solution per experimental well. Then a fluorescence imager was used for imaging. The photos were taken under Ex=745 nm, Em=820 nm. The ROI (Region of Interest) value for each well was quantitatively calculated.

[2] = Fluorescence emission spectroscopy test after mixing with surfactin in different ratios; type: physicochemical; conditions: for fluorescence quenching in aqueous solution under the action of surfactin compared with methanol solution (emission spectra): compound 20 μM, Ex=730 nm, Em=760-960 nm, ratio 1:5 stated for Compounds 1-3; for fluorescence quenching effect when the amount of surfactin was reduced: compound:surfactin from 1:5 to 1:1, 1:0.2
Experimental: Surfactin in different concentrations was added to the aqueous solution of the corresponding compound (final concentration of 20 μM), and the molar ratio of the compound to be tested to surfactin was 1:5, 1:1, 1:0.2. A methanol solution of the corresponding compound (final concentration of 20 μM) was used as a positive control. The test solution was shaken for 5 minutes and its fluorescence emission spectra (Ex=730 nm, Em=760-960 nm) were detected using a fluorescence spectrophotometer.

[3] = test system: tumor tissue in a mouse subcutaneous xenograft renal clear cell carcinoma tumor model (786o); experiment: Near-infrared imaging of excised tumor tissue immersed in compound/surfactin solution, renal clear cell carcinoma model; conditions: compound 20 μM, surfactin 100 μM (1:5), 786o xenograft tumor tissue immersed; for correlation between uptake by tumor tissues and immersion time: ROI
Experimental: (§1) Mice were dissected, and tumor tissues were taken.
Compounds 1-8 were added to the aqueous solution of surfactin. The final concentration of surfactin was 100 μM, and the final concentration of each compound was 20 μM (the molar ratio of the compound to surfactant was 1:5).
(§2) The tumor tissue was immersed in the above liquid.

[4] = test system: diseased colonic tissue in a mouse primary bowel cancer tumor model (APCmin/+); experiment: Near-infrared imaging of diseased colon tissue immersed in compound/surfactin mixture, primary bowel cancer model; conditions: for recognition of tumor lesions: mixture with surfactin 1:5 (20 μM/100 μM), colon tissue immersed 12 min; for imaging ranking: mixture with surfactin 1:5, colon tissue immersed 12 min
Experimental: Establishment of the mouse primary bowel cancer tumor model of APCmin/+ mouse model: parent C57BL/6J-APC min/+ mice and C57BL/6J wt mice were caged and propagated. The genotype of the offspring was detected and the offspring C57BL/6J-APC min/+ mice (diseased mice) were screened. The offspring C57BL/6J-APC min/+ mice were killed at week 20. Mice were dissected and diseased colon tissue was taken. Colon was cut longitudinally for subsequent tests.
Compounds 1-8 were added to the aqueous solution of surfactin.
The diseased colon tissue of mice was immersed in the above fluid. A fluorescence imager was used for imaging after 12 min.

[5] = test system: human renal cancer cell line A498; experiment: Fluorescence localization imaging in human renal cancer cell line A498; type: cell-based; conditions: same method as Example 2; for intracellular localization: A498 cells
Experimental: 786o cells (3×10^5/well) were seeded in a 6-well plate in advance and placed in a cell culture incubator for 48 h. After the culture medium was blotted, a culture medium comprising the corresponding compound (5 μM) and Mito-tracker (0.2 nM) was added to the experimental well, incubated for 30 min, cleaned three times with PBS solution, and imaged using a fluorescence microscope equipped with an infrared camera and a continuous LED light source. The near-infrared photos were taken under Ex=745 nm, Em=820 nm; the Mito-tracker photos were taken under Ex=488 nm and Em=520 nm.
The same method as Example 2 was employed except that the human renal cancer cell line A498 was used to detect the localization of Compounds 4, 5 within the cell.

[6] = molar ratio 1:1
Experimental: Different surfactants were added to the aqueous solution of Compound 4 (final concentration of […]), and the molar ratio of the compound to be tested to surfactin was 1:1. In addition, a methanol solution of the compound (final concentration of 20 μM) was used as a positive control. The test solution was shaken for 5 minutes and its fluorescence emission spectra (Ex=730 nm, Em=760-960 nm) were detected using a fluorescence spectrophotometer.

[7] = test system: tumor tissue in a mouse subcutaneous xenograft breast cancer tumor model; experiment: Near-infrared imaging of tumor tissue, breast cancer model; conditions: compound:surfactin 1:5, breast cancer xenograft tumor tissue; for correlation between uptake by tumor tissues and immersion time: ROI
Text: as §1, §2

[8] = test system: organic anion transporting polypeptides (OATPs); conditions: compound:surfactin 1:5, 1 mM sodium bromosulfophthalein (50 equivalent), renal clear cell carcinoma xenograft tumor tissue
Experimental: Female nude mice around 5 weeks of age were ordered and subjected to subcutaneous renal clear cell cancer cell 786o inoculation after one week of barrier environmental adaptation at a specific position above the right lower limb (3×10^6/pce, suspended in 200 μl PBS solution). When the tumor volume reached 50-150 mm^3 (about 12-22 days), nude mice were randomly grouped with 3 mice in each experimental group. Mice were dissected, and tumor tissues were taken.
The tumor tissue was immersed in the above liquid. A fluorescence imager was used for imaging after a specified time.

Structure (SMILES) | fluorescence quenching effect, comparison between compounds [1] | fluorescence quenching in aqueous solution under the action of surfactin compared with methanol solution (emission spectra) [2] | fluorescence quenching effect when the amount of surfactin was reduced [2] | reason for near-infrared imaging of tumor tissues [3] | correlation between uptake by tumor tissues and immersion time [3] | recognition of tumor lesions [4] | intracellular localization [5] | uptake by tumor cells [5] | fluorescence signal in aqueous solution after mixing ([6]; mixed with anionic surfactants (surfactin, sodium dodecyl sulfonate, sodium dodecyl benzene sulfonate)) | fluorescence signal in aqueous solution after mixing ([6]; mixed with cationic surfactants (dodecyltrimethylammonium chloride, tetrabutylammonium iodide)) | fluorescence signal in aqueous solution after mixing ([6]; mixed with human serum albumin) | fluorescence signal in aqueous solution after mixing ([6]; mixed with nonionic surfactants (Kolliphor, P123)) | overall imaging of tumor tissue [3] | uptake of the compound by tumor tissue (level) [3] | uptake of the compound by tumor tissue (level) [7] | correlation between uptake by tumor tissues and immersion time [7] | imaging ranking [4] | effect of excessive sodium bromosulfophthalein on uptake by tumor tissues [8]
CC1(C)C(/C=C/C2=C(Cl)C(=C/C=C3/N(CCCCCC(=O)O)c4ccccc4C3(C)C)/CCC2)=[N+](CCCCCC(=O)O)c2ccccc21 [Compound 1, reference compound] | the worst | obvious fluorescence quenching | significantly reduced | non-specific adsorption of the compounds by tissues | no obvious positive correlation | had a recognition effect |  |  |  |  |  |  |  |  |  |  |  | 
CCN1/C(=C/C=C2\CCCC(/C=C/C3=[N+](CC)c4ccccc4C3(C)C)=C2Cl)C(C)(C)c2ccccc21 [Compound 2, reference compound] |  | obvious fluorescence quenching | significantly reduced | non-specific adsorption of the compounds by tissues | no obvious positive correlation | had a recognition effect |  |  |  |  |  |  |  |  |  |  |  | 
CC[N+]1=C(/C=C/C2=C(Cl)C(=C/C=C3/N(CCCCCC(=O)Oc4ccccc4)c4ccccc4C3(C)C)/CCC2)C(C)(C)c2ccccc21 [Compound 4] | better than that of Compounds 1, 2 and 3 | obvious fluorescence quenching | not significantly reduced | targeted recognition of tumor tissues by the compounds | an obvious positive correlation | high specific recognition | enriched in mitochondria | uptaken by tumor cells | substantially no fluorescence signal | still fluorescence signal | still fluorescence signal | still fluorescence signal | optimal imaging of tumor tissue | high uptake | higher | an obvious positive correlation | best imaged | effectively reduce the uptake

Continued, in another order:

fluorescence quenching effect, comparison between compounds [1] | fluorescence quenching in aqueous solution under the action of surfactin compared with methanol solution (emission spectra) [2] | fluorescence quenching effect when the amount of surfactin was reduced [2] | Structure (SMILES) | reason for near-infrared imaging of tumor tissues [3] | correlation between uptake by tumor tissues and immersion time [3] | recognition of tumor lesions [4] | intracellular localization [5] | uptake by tumor cells [5] | fluorescence signal in aqueous solution after mixing ([6]; mixed with anionic surfactants (surfactin, sodium dodecyl sulfonate, sodium dodecyl benzene sulfonate)) | fluorescence signal in aqueous solution after mixing ([6]; mixed with cationic surfactants (dodecyltrimethylammonium chloride, tetrabutylammonium iodide)) | fluorescence signal in aqueous solution after mixing ([6]; mixed with human serum albumin) | fluorescence signal in aqueous solution after mixing ([6]; mixed with nonionic surfactants (Kolliphor, P123)) | overall imaging of tumor tissue [3] | uptake of the compound by tumor tissue (level) [3] | uptake of the compound by tumor tissue (level) [7] | correlation between uptake by tumor tissues and immersion time [7] | imaging ranking [4] | effect of excessive sodium bromosulfophthalein on uptake by tumor tissues [8]
 | obvious fluorescence quenching | significantly reduced | CC[N+]1=C(/C=C/C2=C(Cl)C(=C/C=C3/N(CCCCCC(=O)O)c4ccccc4C3(C)C)/CCC2)C(C)(C)c2ccccc21 [Compound 3, reference compound] | non-specific adsorption of the compounds by tissues | no obvious positive correlation | had a recognition effect |  |  |  |  |  |  |  |  |  |  |  | 
better than that of Compounds 1, 2 and 3 | obvious fluorescence quenching | not significantly reduced | CC[N+]1=C(/C=C/C2=C(Cl)C(=C/C=C3/N(CCCCCC(=O)Oc4ccc(NC(=O)OC(C)(C)C)cc4)c4ccccc4C3(C)C)/CCC2)C(C)(C)c2ccccc21 [Compound 5] | targeted recognition of tumor tissue by the compounds | a certain positive correlation | high specific recognition | enriched in mitochondria | uptaken by tumor cells |  |  |  |  |  | low uptake |  |  |  | 
 | obvious fluorescence quenching | not significantly reduced | CC[N+]1=C(/C=C/C2=C(Cl)C(=C/C=C3/N(CCCCCC(=O)Nc4ccc(NC(=O)OC(C)(C)C)cc4)c4ccccc4C3(C)C)/CCC2)C(C)(C)c2ccccc21 [Compound 6] | targeted recognition of tumor tissues by the compounds | an obvious positive correlation | high specific recognition |  |  |  |  |  |  | optimal imaging of tumor tissue | high uptake | higher | an obvious positive correlation | best imaged | 
